≈ marks a conversion by molar mass, not a printed value. Where two headings read alike, the source gives them in different places.
Legend:
Assay type in all cases: cell-based
[1] = test system: NDM-1 K. pneumoniae XJ155017; experiment: Kirby Bauer disc diffusion
Text: (§1) Supplementary Ta b l e 2. Identification and anti biotic susceptibility of NDM-1-producing K. pneumonia strains.
(§2) Antibiotics NDM-1 NDM-1 NDM-1 NDM-1 […]
(§3) Cefoperazone/ sul bact am KB 32 (S) 7 (R) 7 (R) 7 (R) 7 (R)
(§4) Nitrofurantoi n KB 21 (S) 7 (R) 9 (R) 10 (R) 9 (R) […]
(§5) R, resistant; S, sensitive; M IC , minimum inhibitory concentration; KB, Kirb y Baue r disc diffusion method .
(§6) The unit of M IC is “μg/mL”. The unit of KB is “mm”.

K. pneumoniae ATCC13883 [2] = experiment: Kirby Bauer disc diffusion
Text: as §1, §2, §3, §4, §5, §6

[3] = test system: NDM-1 K. pneumoniae XJ155018; experiment: Kirby Bauer disc diffusion
Text: as §1, §2, §3, §4, §5, §6

[4] = test system: NDM-1 K. pneumoniae XJ155020; experiment: Kirby Bauer disc diffusion
Text: as §1, §2, §3, §4, §5, §6

[5] = test system: NDM-1 K. pneumoniae XJ155019; experiment: Kirby Bauer disc diffusion
Text: as §1, §2, §3, §4, §5, §6

NDM-1 E. coli XJ141026 [6] = experiment: Kirby Bauer disc diffusion
Text: (§7) Supplementary Table 1. Identification and antibiotic susceptibility of NDM-1-producing E. coli strains. […]
(§8) Cefoperazone/ sul bact am KB — — 7 (R) 7 (R) 7 (R)
(§9) Nitrofurantoi n KB — — 14 (R) 17 (R) 19 (S) […]
(§10) R, resistant; S, sensitive; M IC , minimum inhibitory concentration; KB, Kirb y Bauer disc diffusion method.
(§11) The unit of M IC is “ μ g/ mL”. The unit of KB is “ mm” .

NDM-1 E. coli XJ141047 [7] = experiment: Kirby Bauer disc diffusion
Text: as §7, §8, §9, §10, §11

NDM-1 E. coli XJ141015 [8] = experiment: Kirby Bauer disc diffusion
Text: as §7, §8, §9, §10, §11

[9] = test system: NDM-1 K. pneumoniae XJ155017; experiment: Antibiotic susceptibility (MIC), automated identification system; settings: Supplementary Table 2; for MIC: Klebsiella pneumoniae
Text: (§12) Clinical isolate strains were identified and screened by the Phoenix 100 automated bacterial identification system to rapidly detect antimicrobial resistance. Total DNA was extracted by the TIANamp Bacteria DNA Kit according to the manufacturer’s protocol. The presence of blaNDM-1 was confirmed using a diagnostic kit for NDM-1 (Puruikang Bio Inc., Shenzhen, China) based on fluorescent quantitative polymerase chain reaction assay. According to the instruction, Ct values of less than 37 were considered positive.

K. pneumoniae ATCC13883 [10] = experiment: as above; settings: Supplementary Table 2; for MIC: Klebsiella pneumoniae, ATCC13883
Text: as §12

NDM-1 E. coli XJ141026 [11] = experiment: as above; settings: Supplementary Table 1; for MIC: Escherichia coli
Text: as §12

E. coli ATCC25922 [12] = experiment: as above; settings: Supplementary Table 1; for MIC: Escherichia coli, ATCC25922
Text: as §12

[13] = test system: NDM-1 K. pneumoniae XJ155018; experiment: as above; settings: Supplementary Table 2; for MIC: Klebsiella pneumoniae
Text: as §12

NDM-1 E. coli XJ141047 [14] = experiment: as above; settings: Supplementary Table 1; for MIC: Escherichia coli
Text: as §12

[15] = test system: NDM-1 K. pneumoniae XJ155020; experiment: as above; settings: Supplementary Table 2; for MIC: Klebsiella pneumoniae
Text: as §12

NDM-1 E. coli XJ141015 [16] = experiment: as above; settings: Supplementary Table 1; for MIC: Escherichia coli
Text: as §12

[17] = test system: NDM-1 K. pneumoniae XJ155019; experiment: as above; settings: Supplementary Table 2; for MIC: Klebsiella pneumoniae
Text: as §12

[18] = test system: NDM-1 K. pneumoniae XJ155017; experiment: MIC, broth microdilution; settings: Klebsiella pneumoniae, 16 h
Text: (§13) MIC values were identified through microdilution in sterilized 96-well polypropylene microtiter plates according to the broth microdilution guideline of the Clinical and Laboratory Standards Institute[30]. The test medium was Mueller–Hinton broth (MHB), and the strain concentrations were adjusted to 5 × 10^5 CFU/mL.

K. pneumoniae ATCC13883 [19] = experiment: MIC, broth microdilution; settings: Klebsiella pneumoniae
Text: as §13

NDM-1 E. coli XJ141026 [20] = experiment: MIC, broth microdilution; settings: Escherichia coli, 16 h
Text: as §13

E. coli ATCC25922 [21] = experiment: MIC, broth microdilution; settings: Escherichia coli
Text: as §13

[22] = test system: NDM-1 K. pneumoniae XJ155018; experiment: MIC, broth microdilution; settings: Klebsiella pneumoniae, 16 h
Text: as §13

E. coli ATCC35218 = experiment: MIC, broth microdilution; settings: Escherichia coli
Text: as §13

NDM-1 E. coli XJ141047 [23] = experiment: MIC, broth microdilution; settings: Escherichia coli, 16 h
Text: as §13

[24] = test system: NDM-1 K. pneumoniae XJ155020; experiment: MIC, broth microdilution; settings: Klebsiella pneumoniae, 16 h
Text: as §13

NDM-1 E. coli XJ141015 [25] = experiment: MIC, broth microdilution; settings: Escherichia coli, 16 h
Text: as §13

[26] = test system: NDM-1 K. pneumoniae XJ155019; experiment: MIC, broth microdilution; settings: Klebsiella pneumoniae, 16 h
Text: as §13

[27] = Klebsiella pneumoniae, read-out: KB disc diffusion
[28] = MHB, 5 × 10^5 CFU/mL, 37 °C, read-out: MIC

CO/N=C(\C(=O)N[C@@H]1C(=O)N2C(C(=O)O)=C(COC(N)=O)CS[C@H]12)c1ccco1 [Cefuroxime]
susceptibility class (KB) [1]: R | inhibition zone diameter (Kirby-Bauer disc diffusion) [1, 27]: 7 mM | susceptibility class (KB) (K. pneumoniae ATCC13883 [2]): S | inhibition zone diameter (K. pneumoniae ATCC13883 [2]; Klebsiella pneumoniae, ATCC13883, read-out: KB disc diffusion): 23 mM | susceptibility class (KB) [3]: R | inhibition zone diameter [3, 27]: 7 mM | susceptibility class (KB) [4]: R | disc diffusion inhibition zone diameter [4, 27]: 7 mM | susceptibility class (KB) [5]: R | susceptibility class (KB) (NDM-1 E. coli XJ141026 [6]): R | susceptibility class (KB) (NDM-1 E. coli XJ141047 [7]): R | inhibition zone diameter (NDM-1 E. coli XJ141047 [7]; Escherichia coli, read-out: KB disc diffusion): 7 mM | susceptibility class (KB) (NDM-1 E. coli XJ141015 [8]): R

CCN1CCN(C(=O)N[C@@H](C(=O)N[C@@H]2C(=O)N3[C@@H]2SC(C)(C)[C@@H]3C(=O)O)c2ccccc2)C(=O)C1=O [Piperacillin]
MIC [9]: > 64 µg/mL | susceptibility class (MIC) [9]: R | MIC (K. pneumoniae ATCC13883 [10]): 8 µg/mL (≈ 15.5 µM) | susceptibility class (MIC) (K. pneumoniae ATCC13883 [10]): S | MIC (NDM-1 E. coli XJ141026 [11]): > 64 µg/mL | susceptibility class (MIC) (NDM-1 E. coli XJ141026 [11]): R | MIC (E. coli ATCC25922 [12]): ≤ 4 µg/mL | susceptibility class (MIC) (E. coli ATCC25922 [12]): S | MIC [13]: > 64 µg/mL | susceptibility class (MIC) [13]: R | MIC (NDM-1 E. coli XJ141047 [14]): > 64 µg/mL | susceptibility class (MIC) (NDM-1 E. coli XJ141047 [14]): R | MIC [15]: > 64 µg/mL | susceptibility class (MIC) [15]: R | MIC (NDM-1 E. coli XJ141015 [16]): > 64 µg/mL | susceptibility class (MIC) (NDM-1 E. coli XJ141015 [16]): R | MIC [17]: > 64 µg/mL | susceptibility class (MIC) [17]: R | MIC [18, 28]: > 256 µg/mL | MIC (K. pneumoniae ATCC13883 [19]; ATCC13883, MHB, 5 × 10^5 CFU/mL, 16 h, 37 °C, read-out: MIC): 8 µg/mL (≈ 15.5 µM) | MIC (NDM-1 E. coli XJ141026 [20]; [28]): > 256 µg/mL | MIC (E. coli ATCC25922 [21]; ATCC25922, MHB, 5 × 10^5 CFU/mL, 16 h, 37 °C, read-out: MIC): 2 µg/mL (≈ 3.86 µM) | MIC [22, 28]: > 256 µg/mL | MIC (E. coli ATCC35218; ATCC35218, MHB, 5 × 10^5 CFU/mL, 16 h, 37 °C, read-out: MIC): > 256 µg/mL | MIC (NDM-1 E. coli XJ141047 [23]; [28]): > 256 µg/mL | MIC [24, 28]: > 256 µg/mL | MIC (NDM-1 E. coli XJ141015 [25]; [28]): > 256 µg/mL | MIC [26, 28]: > 256 µg/mL

CO/N=C(\C(=O)N[C@@H]1C(=O)N2C(C(=O)O)=C(COC(C)=O)CS[C@H]12)c1csc(N)n1 [Cefotaxime]
MIC [9]: > 32 µg/mL | susceptibility class (MIC) [9]: R | MIC (K. pneumoniae ATCC13883 [10]): ≤ 1 µg/mL | susceptibility class (MIC) (K. pneumoniae ATCC13883 [10]): S | MIC (NDM-1 E. coli XJ141026 [11]): > 32 µg/mL | susceptibility class (MIC) (NDM-1 E. coli XJ141026 [11]): R | MIC (E. coli ATCC25922 [12]): ≤ 1 µg/mL | susceptibility class (MIC) (E. coli ATCC25922 [12]): S | MIC [13]: > 32 µg/mL | susceptibility class (MIC) [13]: R | MIC (NDM-1 E. coli XJ141047 [14]): > 32 µg/mL | susceptibility class (MIC) (NDM-1 E. coli XJ141047 [14]): R | MIC [15]: > 32 µg/mL | susceptibility class (MIC) [15]: R | MIC (NDM-1 E. coli XJ141015 [16]): > 32 µg/mL | susceptibility class (MIC) (NDM-1 E. coli XJ141015 [16]): R | MIC [17]: > 32 µg/mL | susceptibility class (MIC) [17]: R | MIC [18]: > 256 µg/mL | MIC (K. pneumoniae ATCC13883 [19]; ATCC13883, 16 h): < 0.125 µg/mL | MIC (NDM-1 E. coli XJ141026 [20]): > 256 µg/mL | MIC (E. coli ATCC25922 [21]; ATCC25922, 16 h): < 0.125 µg/mL | MIC [22]: > 256 µg/mL | MIC (E. coli ATCC35218; ATCC35218, 16 h): < 0.125 µg/mL | MIC (NDM-1 E. coli XJ141047 [23]): > 256 µg/mL | MIC [24]: > 256 µg/mL | MIC (NDM-1 E. coli XJ141015 [25]): > 256 µg/mL | MIC [26]: > 256 µg/mL

From PMC6684654 (Nature Communications, 2019)
